Here are results for two compounds from patent publication US6350909B1, “Methoxymino-phenylacetamide derivatives and their utilization as pesticides” (Bayer Aktiengesellschaft, priority 1998, dated 2002).

For orientation: melting point means the temperature of the solid-liquid transition.

On to `CON=C(C(=O)NC(=O)CCl)c1ccccc1CO/N=C(\C)c1ccc(C(F)(F)F)cc1` [Example 2, 2-chloro-N-(methoxyimino-{2-[1-(4-trifluoromethylphenyl)-ethylideneaminooxymethyl]-phenyl}-acetyl)-acetamide], for which the melting point is 92 °C (dec.). Compound `COCC(=O)NC(=O)C(=NOC)c1ccccc1CO/N=C(\C)c1ccc(C(F)(F)F)cc1` [Example 1, 2-methoxy-N-(methoxyimino-{2-[1-(4-trifluoromethylphenyl)-ethylideneaminooxymethyl]-phenyl}-acetyl)-acetamide] came in with a melting point of 134 to 138 °C.
